# Data: patent publication US9908868B2, “Isoindolinone compounds as GPR119 modulators for the treatment of diabetes, obesity, dyslipidemia and related disorders” (SANOFI, priority 2014, dated 2018)
# Target: T1, human GPR119 (Homo sapiens, UniProt Q8TDV5)
# T1 construct: expressed in transfected cells
# T1 sequence (Q8TDV5 1-335): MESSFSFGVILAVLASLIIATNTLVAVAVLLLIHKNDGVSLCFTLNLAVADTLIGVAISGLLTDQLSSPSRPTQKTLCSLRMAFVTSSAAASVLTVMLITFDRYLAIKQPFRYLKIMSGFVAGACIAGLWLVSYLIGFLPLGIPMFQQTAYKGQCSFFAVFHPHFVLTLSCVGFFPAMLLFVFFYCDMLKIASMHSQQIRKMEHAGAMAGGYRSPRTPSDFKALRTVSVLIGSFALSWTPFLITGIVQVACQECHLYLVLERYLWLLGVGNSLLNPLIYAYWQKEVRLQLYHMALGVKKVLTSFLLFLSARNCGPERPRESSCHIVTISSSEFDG
# Assay: Functional cellular assay measuring GPR119-mediated cAMP release (HTRF) in HEK-293 cells stably expressing recombinant human GPR119
# Assay type: cell-based
# Conditions: cAMP response, cell line expressing human GPR119, 30 minutes at room temperature
# Method in brief: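 HEK-293 cells stably expressing recombinant human GPR119, suspended at 400000 cells/mL in HBSS/20 mM HEPES/0.1% BSA/2 mM IBMX, exposed to compound for 30 minutes at room temperature. cAMP detected by HTRF (665/620 nm ratio) after 1 h with reagents in lysis buffer. EC50 taken as concentration giving 50% of maximal activation.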
row,EC50 [µM],SMILES
1,0.191,"CCOc1ccc(O[C@@H]2CCN(c3cc(F)c4c(c3)C(=O)N(CC(=O)N3CCCC3)C4)C2=O)cn1 [Example 4-17, 6-[(3R)-3-[(6-ethoxy-3-pyridyl)oxy]-2-oxo-pyrrolidin-1-yl]-4-fluoro-2-(2-oxo-2-pyrrolidin-1-yl-ethyl)isoindolin-1-one]"
2,0.516,"C[S+]([O-])CN1Cc2ncc(N3CC[C@@H](Oc4ccc(C(=O)C5CC5)cc4)C3=O)cc2C1=O (stereo partly drawn) [Example 1-61, 3-[(3R)-3-[4-(cyclopropanecarbonyl)phenoxy]-2-oxo-pyrrolidin-1-yl]-6-(methylsulfinylmethyl)-7H-pyrrolo[3,4-b]pyridin-5-one]"
3,1.9,"CN(C)C(=O)CC1c2ccc(N3CC[C@@H](Oc4ccc(OCC5CC5)nc4)C3=O)cc2C(=O)N1C (stereo partly drawn) [Example 1-07, 2-[5-[(3R)-3-[[6-(cyclopropylmethoxy)-3-pyridyl]oxy]-2-oxo-pyrrolidin-1-yl]-2-methyl-3-oxo-isoindolin-1-yl]-N,N-dimethyl-acetamide]"
4,0.062,"CN(C)C(=O)CN1Cc2ccc(N3CC[C@@H](Oc4ccc(OCC(F)(F)F)nc4)C3=O)cc2C1=O [Example 2-05, N,N-dimethyl-2-[1-oxo-6-[(3R)-2-oxo-3-[[6-(2,2,2-trifluoroethoxy)-3-pyridyl]oxy]pyrrolidin-1-yl]isoindolin-2-yl]acetamide]"
5,0.544,"O=C(O)CN1Cc2ccc(N3CC[C@@H](Oc4ccc(OCC(F)(F)F)nc4)C3=O)cc2C1=O [Example 3-05, 2-[1-oxo-6-[(3R)-2-oxo-3-[[6-(2,2,2-trifluoroethoxy)-3-pyridyl]oxy]pyrrolidin-1-yl]isoindolin-2-yl]acetic acid]"
6,0.035,"CN(C)C(=O)CN1Cc2c(F)cc(N3CC[C@@H](Oc4ccc(OCC5CCC5)nc4)C3=O)cc2C1=O [Example 6-04, 2-[6-[(3R)-3-[[6-(cyclobutylmethoxy)-3-pyridyl]oxy]-2-oxo-pyrrolidin-1-yl]-4-fluoro-1-oxo-isoindolin-2-yl]-N,N-dimethyl-acetamide]"
7,0.976,"CN(C)C(=O)CN1Cc2ncc(N3CC[C@@H](Oc4ccc(Oc5ccc(F)cc5)nc4)C3=O)cc2C1=O [Example 1-28, 2-[3-[(3R)-3-[[6-(4-fluorophenoxy)-3-pyridyl]oxy]-2-oxo-pyrrolidin-1-yl]-5-oxo-7H-pyrrolo[3,4-b]pyridin-6-yl]-N,N-dimethyl-acetamide]"
8,1.12,"C[S+]([O-])CN1Cc2ncc(N3CC[C@@H](Oc4ccc(C(=O)C5CC5)nc4)C3=O)cc2C1=O (stereo partly drawn) [Example 1-57, 3-[(3R)-3-[[6-(cyclopropanecarbonyl)-3-pyridyl]oxy]-2-oxo-pyrrolidin-1-yl]-6-(methylsulfinylmethyl)-7H-pyrrolo[3,4-b]pyridin-5-one]"
9,0.063,"COC(=O)CN1Cc2ccc(N3CC[C@@H](Oc4ccc(OCCC5CC5)nc4)C3=O)cc2C1=O [Example 1-32, methyl 2-[6-[(3R)-3-[[6-(2-cyclopropylethoxy)-3-pyridyl]oxy]-2-oxo-pyrrolidin-1-yl]-1-oxo-isoindolin-2-yl]acetate]"
10,0.343,"Cc1csc(-c2ccc(O[C@@H]3CCN(c4ccc5c(c4)C(=O)N(CC(=O)N(C)C)C5)C3=O)cc2)n1 [Example 2-31, N,N-dimethyl-2-[6-[(3R)-3-[4-(4-methylthiazol-2-yl)phenoxy]-2-oxo-pyrrolidin-1-yl]-1-oxo-isoindolin-2-yl]acetamide]"
11,0.051,"NC(=O)CN1Cc2ccc(N3CC[C@@H](Oc4ccc(OCC(F)(F)F)nc4)C3=O)cc2C1=O [Example 1-56, 2-[1-oxo-6-[(3R)-2-oxo-3-[[6-(2,2,2-trifluoroethoxy)-3-pyridyl]oxy]pyrrolidin-1-yl]isoindolin-2-yl]acetamide]"
12,0.206,"O=C(CN1Cc2ccc(N3CC[C@@H](Oc4ccc(OCC5CC5)nc4)C3=O)cc2C1=O)N1CCC(O)CC1 [Example 4-03, 6-[(3R)-3-[[6-(cyclopropylmethoxy)-3-pyridyl]oxy]-2-oxo-pyrrolidin-1-yl]-2-[2-(4-hydroxy-1-piperidyl)-2-oxo-ethyl]isoindolin-1-one]"
13,10.9,"CN1C(=O)c2cc(N3CC[C@@H](Oc4ccc(OCC5CC5)nc4)C3=O)ccc2C1CC(=O)O (stereo partly drawn) [Example 1-03, 2-[5-[(3R)-3-[[6-(cyclopropylmethoxy)-3-pyridyl]oxy]-2-oxo-pyrrolidin-1-yl]-2-methyl-3-oxo-isoindolin-1-yl]acetic acid]"
14,1.05,"CCCN1Cc2ccc(N3CC[C@@H](Oc4ccc(OCC5CC5)nc4)C3=O)cc2C1=O [Example 1-08, 6-[(3R)-3-[[6-(cyclopropylmethoxy)-3-pyridyl]oxy]-2-oxo-pyrrolidin-1-yl]-2-propyl-isoindolin-1-one]"
15,0.47,"CN(C)C(=O)CN1Cc2ccc(N3CC[C@@H](Oc4ccc(OC(F)(F)F)c(Cl)c4)C3=O)cc2C1=O [Example 2-41, 2-[6-[(3R)-3-[3-chloro-4-(trifluoromethoxy)phenoxy]-2-oxo-pyrrolidin-1-yl]-1-oxo-isoindolin-2-yl]-N,N-dimethyl-acetamide]"
16,0.179,"CN(CCO)C(=O)CN1Cc2ccc(N3CC[C@@H](Oc4ccc(OCC(F)(F)F)nc4)C3=O)cc2C1=O [Example 1-45, N-(2-hydroxyethyl)-N-methyl-2-[1-oxo-6-[(3R)-2-oxo-3-[[6-(2,2,2-trifluoroethoxy)-3-pyridyl]oxy]pyrrolidin-1-yl]isoindolin-2-yl]acetamide]"
17,0.098,"CN(C)C(=O)CN1Cc2ccc(N3CC[C@@H](Oc4ccc(C(=O)C5CC(F)(F)C5)cc4)C3=O)cc2C1=O [Example 2-63, 2-[6-[(3R)-3-[4-(3,3-difluorocyclobutanecarbonyl)phenoxy]-2-oxo-pyrrolidin-1-yl]-1-oxo-isoindolin-2-yl]-N,N-dimethyl-acetamide]"
18,0.163,"CC(C)Sc1ccc(O[C@@H]2CCN(c3ccc4c(c3)C(=O)N(CC(=O)N(C)C)C4)C2=O)cn1 [Example 1-09, 2-[6-[(3R)-3-[(6-isopropylsulfanyl-3-pyridyl)oxy]-2-oxo-pyrrolidin-1-yl]-1-oxo-isoindolin-2-yl]-N,N-dimethyl-acetamide]"
19,0.047,"CN(C)C(=O)CN1Cc2ccc(N3CC[C@@H](Oc4ccc(SCC5CC5)nc4)C3=O)cc2C1=O [Example 2-19, 2-[6-[(3R)-3-[[6-(cyclopropylmethylsulfanyl)-3-pyridyl]oxy]-2-oxo-pyrrolidin-1-yl]-1-oxo-isoindolin-2-yl]-N,N-dimethyl-acetamide]"
20,0.218,"O=C(CN1Cc2ccc(N3CC[C@@H](Oc4ccc(OCC(F)(F)F)nc4)C3=O)cc2C1=O)N1CC(O)C1 [Example 1-47, 2-[2-(3-hydroxyazetidin-1-yl)-2-oxo-ethyl]-6-[(3R)-2-oxo-3-[[6-(2,2,2-trifluoroethoxy)-3-pyridyl]oxy]pyrrolidin-1-yl]isoindolin-1-one]"
21,0.147,"C[S+]([O-])CN1Cc2ccc(N3CC[C@@H](Oc4ccc(C(=O)C5CC5)cc4)C3=O)cc2C1=O (stereo partly drawn) [Example 1-60, 6-[(3R)-3-[4-(cyclopropanecarbonyl)phenoxy]-2-oxo-pyrrolidin-1-yl]-2-(methylsulfinylmethyl)isoindolin-1-one]"
22,0.267,"CCC(=O)c1ccc(O[C@@H]2CCN(c3ccc4c(c3)C(=O)N(CC(=O)N(C)C)C4)C2=O)cc1 [Example 2-11, N,N-dimethyl-2-[1-oxo-6-[(3R)-2-oxo-3-(4-propanoylphenoxy)pyrrolidin-1-yl]isoindolin-2-yl]acetamide]"
23,0.052,"CN(C)C(=O)CN1Cc2ccc(N3CC[C@@H](Oc4ccc(C(=O)CCC(F)(F)F)cc4)C3=O)cc2C1=O [Example 2-66, N,N-dimethyl-2-[1-oxo-6-[(3R)-2-oxo-3-[4-(4,4,4-trifluorobutanoyl)phenoxy]pyrrolidin-1-yl]isoindolin-2-yl]acetamide]"
24,0.281,"CN(CCO)C(=O)CN1Cc2ccc(N3CC[C@@H](Oc4ccc(OCC5CC5)nc4)C3=O)cc2C1=O [Example 4-06, 2-[6-[(3R)-3-[[6-(cyclopropylmethoxy)-3-pyridyl]oxy]-2-oxo-pyrrolidin-1-yl]-1-oxo-isoindolin-2-yl]-N-(2-hydroxyethyl)-N-methyl-acetamide]"
25,0.808,"CN(C)C(=O)CN1Cc2ccc(N3CC[C@@H](Oc4ccc(-c5cnccn5)cc4)C3=O)cc2C1=O [Example 2-38, N,N-dimethyl-2-[1-oxo-6-[(3R)-2-oxo-3-(4-pyrazin-2-ylphenoxy)pyrrolidin-1-yl]isoindolin-2-yl]acetamide]"
26,0.208,"O=C(CN1Cc2ccc(N3CC[C@@H](Oc4ccc(Oc5ccc(F)cc5)nc4)C3=O)cc2C1=O)N1CC(O)C1 [Example 4-10, 6-[(3R)-3-[[6-(4-fluorophenoxy)-3-pyridyl]oxy]-2-oxo-pyrrolidin-1-yl]-2-[2-(3-hydroxyazetidin-1-yl)-2-oxo-ethyl]isoindolin-1-one]"
27,0.098,"CS(=O)(=O)CN1Cc2ccc(N3CC[C@@H](Oc4ccc(Oc5ccc(F)cc5)nc4)C3=O)cc2C1=O [Example 1-53, 6-[(3R)-3-[[6-(4-fluorophenoxy)-3-pyridyl]oxy]-2-oxo-pyrrolidin-1-yl]-2-(methylsulfonylmethyl)isoindolin-1-one]"
28,0.598,"O=C(CN1Cc2ccc(N3CC[C@@H](Oc4ccc(OCC5CC5)nc4)C3=O)cc2C1=O)N(CCO)CCO [Example 4-33, 2-[6-[(3R)-3-[[6-(cyclopropylmethoxy)-3-pyridyl]oxy]-2-oxo-pyrrolidin-1-yl]-1-oxo-isoindolin-2-yl]-N,N-bis(2-hydroxyethyl)acetamide]"
